Source: the NIST ThermoML archive (doi:10.1021/je0301794)
± gives the expanded uncertainty stated by the source.

Columns and labels:
[1] = xn = mol fraction of the nth substance listed; details: 101.3 kPa, Liquid
[2] = excess molar enthalpy (molar enthalpy of mixing); xn = mol fraction of the nth substance listed; details: 318.15 K, 101.3 kPa, Liquid

COC(=O)OC [dimethyl carbonate] + CCCCCCC
[1]
Details | mass density [kg/m3]
293.15 K, x1 = 0.05 | 694 ± 0.5
293.15 K, x1 = 0.094 | 703.5 ± 0.5
293.15 K, x1 = 0.2039 | 729.2 ± 0.5
293.15 K, x1 = 0.324 | 761.2 ± 0.5
293.15 K, x1 = 0.4062 | 785.9 ± 0.5
293.15 K, x1 = 0.5059 | 819.4 ± 0.5
293.15 K, x1 = 0.6099 | 859.2 ± 0.5
293.15 K, x1 = 0.6987 | 897.8 ± 0.5
293.15 K, x1 = 0.8086 | 952.7 ± 0.5
293.15 K, x1 = 0.9029 | 1006.6 ± 0.5
293.15 K, x1 = 0.9504 | 1036.6 ± 0.5
293.15 K, x1 = 1 | 1070 ± 0.6
298.15 K, x1 = 0.0594 | 691.6 ± 0.5
298.15 K, x1 = 0.1204 | 704.9 ± 0.5
298.15 K, x1 = 0.2132 | 726.7 ± 0.5
298.15 K, x1 = 0.3135 | 753.1 ± 0.5
298.15 K, x1 = 0.4018 | 779 ± 0.5
298.15 K, x1 = 0.4716 | 801.6 ± 0.5
298.15 K, x1 = 0.6051 | 851 ± 0.5
298.15 K, x1 = 0.6946 | 889.3 ± 0.5
298.15 K, x1 = 0.8031 | 943 ± 0.5
298.15 K, x1 = 0.902 | 999.5 ± 0.5
298.15 K, x1 = 0.9477 | 1028.2 ± 0.5
298.15 K, x1 = 1 | 1063.5 ± 0.6
303.15 K, x1 = 0.0586 | 687.2 ± 0.5
303.15 K, x1 = 0.0873 | 693.2 ± 0.5
303.15 K, x1 = 0.1996 | 718.7 ± 0.5
303.15 K, x1 = 0.299 | 744.2 ± 0.5
303.15 K, x1 = 0.4009 | 773.6 ± 0.5
303.15 K, x1 = 0.5081 | 808.9 ± 0.5
303.15 K, x1 = 0.6069 | 846.2 ± 0.5
303.15 K, x1 = 0.6979 | 885.2 ± 0.5
303.15 K, x1 = 0.8051 | 938 ± 0.5
303.15 K, x1 = 0.9069 | 995.8 ± 0.5
303.15 K, x1 = 0.9638 | 1031.6 ± 0.5
303.15 K, x1 = 1 | 1056.5 ± 0.6
313.15 K, x1 = 0.0649 | 679.3 ± 0.5
313.15 K, x1 = 0.1157 | 690.1 ± 0.5
313.15 K, x1 = 0.3432 | 746.6 ± 0.5
313.15 K, x1 = 0.4378 | 775.1 ± 0.5
313.15 K, x1 = 0.5458 | 812 ± 0.5
313.15 K, x1 = 0.6259 | 842.9 ± 0.5
313.15 K, x1 = 0.7191 | 883.2 ± 0.5
313.15 K, x1 = 0.8128 | 929.3 ± 0.5
313.15 K, x1 = 0.8798 | 966.5 ± 0.5
313.15 K, x1 = 0.9536 | 1012 ± 0.5
313.15 K, x1 = 0.9822 | 1031.1 ± 0.5
313.15 K, x1 = 1 | 1043.4 ± 0.5
318.15 K, x1 = 0.0693 | 675.1 ± 0.5
318.15 K, x1 = 0.1044 | 682.5 ± 0.5
318.15 K, x1 = 0.1947 | 702.6 ± 0.5
318.15 K, x1 = 0.2734 | 722 ± 0.5
318.15 K, x1 = 0.3512 | 743.2 ± 0.5
318.15 K, x1 = 0.419 | 763.3 ± 0.5
318.15 K, x1 = 0.4889 | 785.9 ± 0.5
318.15 K, x1 = 0.5518 | 808.1 ± 0.5
318.15 K, x1 = 0.61 | 830.3 ± 0.5
318.15 K, x1 = 0.6632 | 852 ± 0.5
318.15 K, x1 = 0.7142 | 874.6 ± 0.5
318.15 K, x1 = 0.762 | 897.1 ± 0.5
318.15 K, x1 = 0.8077 | 920.1 ± 0.5
318.15 K, x1 = 0.8514 | 943.8 ± 0.5
318.15 K, x1 = 0.8883 | 965 ± 0.5
318.15 K, x1 = 0.9289 | 989.7 ± 0.5
318.15 K, x1 = 0.964 | 1012.4 ± 0.5
318.15 K, x1 = 1 | 1036.9 ± 0.5

[2]
Details | excess molar enthalpy [kcal/mol]
x1 = 0.095 | 0.191 ± 0.0043
x1 = 0.1875 | 0.317 ± 0.00693
x1 = 0.2819 | 0.413 ± 0.00884
x1 = 0.3677 | 0.474 ± 0.01
x1 = 0.4442 | 0.503 ± 0.0105
x1 = 0.5016 | 0.512 ± 0.0108
x1 = 0.5205 | 0.512 ± 0.0108
x1 = 0.5497 | 0.511 ± 0.0108
x1 = 0.5542 | 0.51 ± 0.0108
x1 = 0.5906 | 0.505 ± 0.0105
x1 = 0.6326 | 0.493 ± 0.0103
x1 = 0.674 | 0.474 ± 0.01
x1 = 0.7188 | 0.443 ± 0.00932
x1 = 0.7582 | 0.405 ± 0.0086
x1 = 0.8053 | 0.357 ± 0.00765
x1 = 0.8488 | 0.299 ± 0.00645
x1 = 0.892 | 0.23 ± 0.00502
x1 = 0.929 | 0.157 ± 0.00359
x1 = 0.9663 | 0.0784 ± 0.00215
x1 = 1 | 0 ± 0.000478
